This test has as its target recombinant human SAE enzyme (Homo sapiens (Human), UniProt Q9UBT2). Kind of test: SAE HTRF enzyme assay. The format is biochemical. As to conditions: for Percent Inhibition: Concentration 0.111 μM; for IC50: class symbols A/B/C. The gist of the method:
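This HTRF format monitors Sumo-Flag–Ubc9-GST thioester formation catalysed by 0.11 nM human SAE with 0.5 μM ATP over 105 min at 24° C. Inhibition is expressed at a single concentration or as IC50.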

Molecules are shown by their SMILES.

Chain of recombinant human SAE enzyme (Q9UBT2 whole entry): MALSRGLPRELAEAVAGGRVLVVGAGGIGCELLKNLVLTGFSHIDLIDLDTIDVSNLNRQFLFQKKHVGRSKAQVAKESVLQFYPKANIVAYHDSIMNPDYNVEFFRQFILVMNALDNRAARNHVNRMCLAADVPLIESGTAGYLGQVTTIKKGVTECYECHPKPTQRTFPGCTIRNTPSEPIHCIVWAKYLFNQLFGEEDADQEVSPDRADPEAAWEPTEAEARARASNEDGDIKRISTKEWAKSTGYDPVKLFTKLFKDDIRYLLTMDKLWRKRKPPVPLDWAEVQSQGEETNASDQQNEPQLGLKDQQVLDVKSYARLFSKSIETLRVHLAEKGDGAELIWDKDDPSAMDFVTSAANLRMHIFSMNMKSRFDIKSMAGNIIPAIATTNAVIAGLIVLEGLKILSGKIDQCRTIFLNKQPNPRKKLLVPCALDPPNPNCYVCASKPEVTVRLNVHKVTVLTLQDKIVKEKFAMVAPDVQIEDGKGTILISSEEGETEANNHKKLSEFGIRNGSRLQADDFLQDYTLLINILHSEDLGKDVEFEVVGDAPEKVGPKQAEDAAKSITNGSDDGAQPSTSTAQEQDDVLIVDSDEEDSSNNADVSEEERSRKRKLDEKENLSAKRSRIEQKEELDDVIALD
Chain of recombinant human SAE enzyme (Q9UBE0 whole entry partner): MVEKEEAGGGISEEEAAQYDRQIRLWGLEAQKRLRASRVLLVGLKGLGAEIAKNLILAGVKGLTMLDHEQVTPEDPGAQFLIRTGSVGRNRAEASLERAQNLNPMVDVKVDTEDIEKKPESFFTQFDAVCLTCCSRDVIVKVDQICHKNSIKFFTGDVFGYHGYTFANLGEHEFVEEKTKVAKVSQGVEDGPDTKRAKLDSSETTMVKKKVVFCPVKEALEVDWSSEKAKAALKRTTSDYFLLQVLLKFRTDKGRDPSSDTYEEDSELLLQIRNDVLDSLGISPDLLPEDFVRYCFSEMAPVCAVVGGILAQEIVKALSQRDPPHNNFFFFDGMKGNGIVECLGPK

As for `NS(=O)(=O)OC[C@H]1C[C@@H](Nc2ncncc2C(=O)c2cc([C@@]3(c4cccc(Cl)c4)CCCS3)cs2)C[C@@H]1O` (mixture of isomers) [I-209, {(1R,2S,4R)-4-[(5-{[(2S)-2-(3-chlorophenyl)-2,3,4,5-tetrahydro-2,3′-bithiophen-5′-yl]carbonyl}pyrimidin-4-yl)amino]-2-hydroxycyclopentyl}methyl sulfamate and {(1R,2S,4R)-4-[(5-{[(2R)-2-(3-chlorophenyl)-2,3,4,5-tetrahydro-2,3′-bithiophen-5′-yl]carbonyl}pyrimidin-4-yl)amino]-2-hydroxycyclopentyl}methyl sulfamate], the “Percent Inhibition” value came to 45 and the IC50 fell in the range of 100 to 1000 nM.
The like results for `C[C@@H]1CCCN(Cc2csc(C(=O)c3cncnc3N[C@@H]3C[C@H](COS(N)(=O)=O)[C@@H](O)C3)c2)C1` (mixture of isomers) [I-225, [(1R,2S,4R)-2-hydroxy-4-({5-[(4-{[(3R)-3-methylpiperidin-1-yl]methyl}-2-thienyl)carbonyl]pyrimidin-4-yl}amino)cyclopentyl]methyl sulfamate and [(1R,2S,4R)-2-hydroxy-4-({5-[(4-{[(3S)-3-methylpiperidin-1-yl]methyl}-2-thienyl)carbonyl]pyrimidin-4-yl}amino)cyclopentyl]methyl sulfamate] were, in that order, 33 and 100 to 1000 nM.
The like results for `C[C@H](O)c1cc(C(=O)c2cncnc2N[C@@H]2C[C@H](COS(N)(=O)=O)[C@@H](O)C2)sc1Cl` (mixture of isomers) [I-226, [(1R,2S,4R)-4-{[5-({5-Chloro-4-[(1S)-1-hydroxyethyl]-2-thienyl}carbonyl)pyrimidin-4-yl]amino}-2-hydroxycyclopentyl]methyl sulfamate and [(1R,2S,4R)-4-{[5-({5-Chloro-4-[(1R)-1-hydroxyethyl]-2-thienyl}carbonyl)pyrimidin-4-yl]amino}-2-hydroxycyclopentyl]methyl sulfamate] were, in that order, 33 and 100 to 1000 nM.
As to `CN1CCC[C@]1(c1cccc(Cl)c1)c1csc(C(=O)c2cncnc2N[C@@H]2C[C@H](COS(N)(=O)=O)[C@@H](O)C2)c1` (mixture of isomers) [I-227, [(1R,2S,4R)-4-{[5-({4-[(2S)-2-(3-chlorophenyl)-1-methylpyrrolidin-2-yl]-2-thienyl}carbonyl)pyrimidin-4-yl]amino}-2-hydroxycyclopentyl]methyl sulfamate and [(1R,2S,4R)-4-{[5-({4-[(2R)-2-(3-chlorophenyl)-1-methylpyrrolidin-2-yl]-2-thienyl}carbonyl)pyrimidin-4-yl]amino}-2-hydroxycyclopentyl]methyl sulfamate], the “Percent Inhibition” value amounted to 23 and the IC50 was 100 to 1000 nM.
Consider `NS(=O)(=O)OC[C@H]1C[C@@H](Nc2ncncc2C(=O)c2cc([C@@]3(C4CC4)CCCO3)cs2)C[C@@H]1O` (mixture of isomers) [I-238, [(1R,2S,4R)-4-{[5-({4-[(2S)-2-cyclopropyltetrahydrofuran-2-yl]-2-thienyl}carbonyl)pyrimidin-4-yl]amino}-2-hydroxycyclopentyl]methyl sulfamate and [(1R,2S,4R)-4-{[5-({4-[(2R)-2-cyclopropyltetrahydrofuran-2-yl]-2-thienyl}carbonyl)pyrimidin-4-yl]amino}-2-hydroxycyclopentyl]methyl sulfamate], for which the “Percent Inhibition” value is 25 and the IC50 is 100 to 1000 nM.
The like results for `NS(=O)(=O)OC[C@H]1C[C@@H](Nc2ncncc2C(=O)c2cc([C@@H]3NCCc4ccc(Cl)nc43)c(Cl)s2)C[C@@H]1O.NS(=O)(=O)OC[C@H]1C[C@@H](Nc2ncncc2C(=O)c2cc([C@H]3NCCc4ccc(Cl)nc43)c(Cl)s2)C[C@@H]1O` (mixture of isomers) [I-253, [(1R,2S,4R)-4-{[5-({5-chloro-4-[(8S)-2-chloro-5,6,7,8-tetrahydro-1,7-naphthyridin-8-yl]-2-thienyl}carbonyl)pyrimidin-4-yl]amino}-2-hydroxycyclopentyl]methyl sulfamate and [(1R,2S,4R)-4-{[5-({5-chloro-4-[(8R)-2-chloro-5,6,7,8-tetrahydro-1,7-naphthyridin-8-yl]-2-thienyl}carbonyl)pyrimidin-4-yl]amino}-2-hydroxycyclopentyl]methyl sulfamate] were, in that order, 100 and less than 10 nM.
`NS(=O)(=O)OC[C@H]1C[C@@H](Nc2ncncc2C(=O)c2cc([C@@H]3OCCc4ccccc43)cs2)C[C@@H]1O.NS(=O)(=O)OC[C@H]1C[C@@H](Nc2ncncc2C(=O)c2cc([C@H]3OCCc4ccccc43)cs2)C[C@@H]1O` (mixture of isomers) [I-254, [(1R,2S,4R)-4-{[5-({4-[(1R)-3,4-dihydro-1H-isochromen-1-yl]-2-thienyl}carbonyl)pyrimidin-4-yl]amino}-2-hydroxycyclopentyl]methyl sulfamate and [(1R,2S,4R)-4-{[5-({4-[(1S)-3,4-dihydro-1H-isochromen-1-yl]-2-thienyl}carbonyl)pyrimidin-4-yl]amino}-2-hydroxycyclopentyl]methyl sulfamate]: the “Percent Inhibition” value was 99 and the IC50 was less than 10 nM.
On to `Cc1sc(C(=O)c2cncnc2NC2CC(O)C(COS(N)(=O)=O)C2)cc1C1OCCc2ccccc21` (mixture of isomers) [I-256, [(1R,2S,4R)-4-{[5-({4-[(1R)-3,4-dihydro-1H-isochromen-1-yl]-5-methyl-2-thienyl}carbonyl)pyrimidin-4-yl]amino}-2-hydroxycyclopentyl]methyl sulfamate and [(1R,2S,4R)-4-{[5-({4-[(1S)-3,4-dihydro-1H-isochromen-1-yl]-5-methyl-2-thienyl}carbonyl)pyrimidin-4-yl]amino}-2-hydroxycyclopentyl]methyl sulfamate], for which the “Percent Inhibition” value is given as 100 and the IC50 is less than 10 nM.
Consider `Cc1sc(C(=O)c2cncnc2N[C@@H]2C[C@H](COS(N)(=O)=O)[C@@H](O)C2)cc1[C@@H]1OCCc2ccc(C(F)(F)F)cc21` (mixture of isomers) [I-258, [(1R,2S,4R)-2-hydroxy-4-{[5-({5-methyl-4-[(1R)-7-(trifluoromethyl)-3,4-dihydro-1H-isochromen-1-yl]-2-thienyl}carbonyl)pyrimidin-4-yl]amino}cyclopentyl]methyl sulfamate and [(1R,2S,4R)-2-hydroxy-4-{[5-({5-methyl-4-[(1S)-7-(trifluoromethyl)-3,4-dihydro-1H-isochromen-1-yl]-2-thienyl}carbonyl)pyrimidin-4-yl]amino}cyclopentyl]methyl sulfamate], for which the “Percent Inhibition” value worked out at 100 and the IC50 is less than 10 nM.
On to `NS(=O)(=O)OC[C@H]1C[C@@H](Nc2ncncc2C(=O)c2cc([C@@H]3NCCc4ccc(Br)cc43)c(Cl)s2)[C@H](O)[C@@H]1O` (mixture of isomers) [I-259, [(1R,2R,3S,4R)-4-{[5-({4-[(1R)-7-bromo-1,2,3,4-tetrahydroisoquinolin-1-yl]-5-chloro-2-thienyl}carbonyl)pyrimidin-4-yl]amino}-2,3-dihydroxycyclopentyl]methyl sulfamate and [(1R,2R,3S,4R)-4-{[5-({4-[(1S)-7-bromo-1,2,3,4-tetrahydroisoquinolin-1-yl]-5-chloro-2-thienyl}carbonyl)pyrimidin-4-yl]amino}-2,3-dihydroxycyclopentyl]methyl sulfamate], for which the “Percent Inhibition” value is on record as 99 and the IC50 was less than 10 nM.
The like results for `Cc1sc(C(=O)c2cncnc2N[C@@H]2C[C@H](COS(N)(=O)=O)[C@@H](O)C2)cc1[C@H]1OCC(F)(F)c2ccc(Cl)nc21` (mixture of isomers) [I-260, [(1R,2S,4R)-4-{[5-({4-[(8R)-2-chloro-5,5-difluoro-5,8-dihydro-6H-pyrano[3,4-b]pyridin-8-yl]-5-methyl-2-thienyl}carbonyl)pyrimidin-4-yl]amino}-2-hydroxycyclopentyl]methyl sulfamate and [(1R,2S,4R)-4-{[5-({4-[(8S)-2-chloro-5,5-difluoro-5,8-dihydro-6H-pyrano[3,4-b]pyridin-8-yl]-5-methyl-2-thienyl}carbonyl)pyrimidin-4-yl]amino}-2-hydroxycyclopentyl]methyl sulfamate] were, in that order, 98 and less than 10 nM.
The like results for `NS(=O)(=O)OC[C@H]1C[C@@H](Nc2ncncc2C(=O)c2cc([C@H]3OCCc4ccc(Cl)cc43)cs2)C[C@@H]1O` (mixture of isomers) [I-261, [(1R,2S,4R)-4-{[5-({4-[(1R)-7-chloro-3,4-dihydro-1H-isochromen-1-yl]-2-thienyl}carbonyl)pyrimidin-4-yl]amino}-2-hydroxycyclopentyl]methyl sulfamate and [(1R,2S,4R)-4-{[5-({4-[(1S)-7-chloro-3,4-dihydro-1H-isochromen-1-yl]-2-thienyl}carbonyl)pyrimidin-4-yl]amino}-2-hydroxycyclopentyl]methyl sulfamate] were, in that order, 99 and less than 10 nM.
The like results for `NS(=O)(=O)OC[C@H]1C[C@@H](Nc2ncncc2C(=O)c2cc([C@@H]3NCc4ccc(Cl)cc43)c(Cl)s2)C[C@@H]1O` (mixture of isomers) [I-262, [(1R,2S,4R)-4-{[5-({5-chloro-4-[(1R)-6-chloro-2,3-dihydro-1H-isoindol-1-yl]-2-thienyl}carbonyl)pyrimidin-4-yl]amino}-2-hydroxycyclopentyl]methyl sulfamate and [(1R,2S,4R)-4-{[5-({5-chloro-4-[(1S)-6-chloro-2,3-dihydro-1H-isoindol-1-yl]-2-thienyl}carbonyl)pyrimidin-4-yl]amino}-2-hydroxycyclopentyl]methyl sulfamate] were, in that order, 100 and less than 10 nM.

These data come from patent US10780090B2, “Heteroaryl compounds useful as inhibitors of SUMO activating enzyme” (Millennium Pharmaceuticals, Inc., priority 2014, dated 2020).
